Test results from patent publication US9988379B2, “GPR40 receptor agonist, methods of preparing the same, and pharmaceutical compositions containing the same as an active agent” (LG CHEM, LTD., priority 2012, dated 2018).

Biological target: T1, human GPR40 (Homo sapiens, UniProt O14842)
T1 construct: expressed in transfected cells; host or cells: CHO-K1
Test: Induction of Ca2+ (calcium flux assay) using human GPR40 expression cell line
Assay type: cell-based
Details: read-out: EC0.5
Summary of the method: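 Read-out is intracellular Ca2+ flux on FlexStation after test compounds (DMSO stocks diluted 200-fold in assay buffer) were added to dye-loaded human GPR40/CHO-K1 cells. Cells had been cultured 24 h, then incubated 1 h at 37° C with Calcium 5 dye, HBSS-HEPES pH 7.4; EC0.5 from concentration plot.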

T1 sequence (O14842 whole entry): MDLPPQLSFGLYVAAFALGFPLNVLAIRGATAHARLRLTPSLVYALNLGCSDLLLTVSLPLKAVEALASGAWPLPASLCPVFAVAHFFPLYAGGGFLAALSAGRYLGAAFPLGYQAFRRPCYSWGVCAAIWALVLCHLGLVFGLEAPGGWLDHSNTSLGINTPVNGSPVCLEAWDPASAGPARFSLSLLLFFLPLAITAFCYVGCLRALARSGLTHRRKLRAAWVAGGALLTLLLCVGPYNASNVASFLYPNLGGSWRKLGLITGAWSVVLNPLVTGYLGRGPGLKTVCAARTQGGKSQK

| EC50 [nM] | Structure (SMILES) |
| --- | --- |
| 5 | CC#C[C@@H](CC(=O)O)c1ccc(OCc2ccc3c(CN4CCCC(F)(F)C4)nn(CC(C)C)c3c2C)cc1 [Example 227, (S)-3-{4-[3-(3,3-difluoro-piperidin-1-ylmethyl)-1-isobutyl-7-methyl-1H-indazol-6-ylmethoxy]-phenyl}-hex-4-ynoic acid] |
| 1 to 50 | CC#C[C@@H](CC(=O)O)c1ccc(OCc2ccc3c(Cn4cccn4)nn(CC(C)C)c3c2C)cc1 [Example 228, (S)-3-[4-(1-isobutyl-7-methyl-3-pyrazol-1-ylmethyl-1H-indazol-6-ylmethoxy)-phenyl]-hex-4-ynoic acid] |
| 35 | CC#C[C@@H](CC(=O)O)c1ccc(OCc2ccc3c(CN4CC[C@H](F)C4)nn(CC(C)C)c3c2C)cc1 [Example 229, (S)-3-{4-[3-((S)-3-fluoro-pyrrolidin-1-ylmethyl)-1-isobutyl-7-methyl-1H-indazol-6-ylmethoxy]-phenyl}-hex-4-ynoic acid] |
| 1 to 50 | CC#C[C@@H](CC(=O)O)c1ccc(OCc2ccc3c(CN4CCC(F)(F)C4)nn(CC(C)C)c3c2C)cc1 [Example 230, (S)-3-{4-[3-(3,3-difluoro-pyrrolidin-1-ylmethyl)-1-isobutyl-7-methyl-1H-indazol-6-ylmethoxy]-phenyl}-hex-4-ynoic acid] |
| 1 to 50 | CC#C[C@@H](CC(=O)O)c1ccc(OCc2ccc3c(CN4CCC(F)(F)C4)cn(CC(C)C)c3n2)cc1 [Example 231, (S)-3-{4-[3-(3,3-difluoro-pyrrolidin-1-ylmethyl)-1-isobutyl-1H-pyrrolo[2,3-b]pyridin-6-ylmethoxy]-phenyl}-hex-4-ynoic acid] |
| 12 | CC#C[C@@H](CC(=O)O)c1ccc(OCc2ccc3c(CN4CCCC(F)(F)C4)cn(CC(C)C)c3n2)cc1 [Example 232, (S)-3-{4-[3-(3,3-difluoro-piperidin-1-ylmethyl)-1-isobutyl-1H-pyrrolo[2,3-b]pyridin-6-ylmethoxy]-phenyl}-hex-4-ynoic acid] |
